Measured values reported in PubChem BioAssay (NCI).
Several values for one entry are separate records, joined by “and”; a condition that tells them apart may be missing. Identical values can stand only once.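 1) Cells in 96-well plates. 2) Compound, 48 h, 5 concentrations. 3) Linear interpolation between surrounding doses. 4) Unreached endpoint = highest concentration. GI50 = concentration required for 50% inhibition of growth. TGI denotes the concentration required for complete inhibition of growth.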

Experiments:
Assay in all cases: inhibition of tumour cell growth, NCI panel, 48 h
COLO 205 colon = test system: COLO 205 colon
MOLT-4 leukemia = test system: MOLT-4 leukemia
CAKI-1 renal = test system: CAKI-1 renal
HCT-116 colon = test system: HCT-116 colon
OVCAR-8 ovarian = test system: OVCAR-8 ovarian
LOX IMVI melanoma = test system: LOX IMVI melanoma
HCT-15 colon = test system: HCT-15 colon
HCC-2998 colon = test system: HCC-2998 colon
NCI-H226 lung = test system: NCI-H226 lung
NCI-H460 lung = test system: NCI-H460 lung

Row | Compound | GI50 (COLO 205 colon) [µM] | TGI (COLO 205 colon) | GI50 (MOLT-4 leukemia) [µM] | TGI (MOLT-4 leukemia) [µM] | GI50 (CAKI-1 renal) [µM] | TGI (CAKI-1 renal) [µM] | GI50 (HCT-116 colon) [µM] | TGI (HCT-116 colon) | GI50 (OVCAR-8 ovarian) [µM] | TGI (OVCAR-8 ovarian) [µM] | GI50 (LOX IMVI melanoma) [µM] | TGI (LOX IMVI melanoma) | GI50 (HCT-15 colon) [µM] | TGI (HCT-15 colon) | GI50 (HCC-2998 colon) [µM] | TGI (HCC-2998 colon) [µM] | GI50 (NCI-H226 lung) [µM] | TGI (NCI-H226 lung) [µM] | GI50 (NCI-H460 lung) [µM] | TGI (NCI-H460 lung) [µM]
1 | CSC1=NC(=Nc2c(C)cccc2C)C2(CCC(C(C)(C)C)CC2)N1c1ccc(Cl)cc1 (stereo not drawn) | 46.4 | > 100 µM | 6.82 | > 100 | 6.59 | > 100 | 4.87 | > 100 µM | 15.1 | > 100 | 6.66 | > 100 µM | 7.42 | > 100 µM | 92.9 | > 100 | 8.93 | > 100 | 4.68 | > 100
2 | CC(C)(CN1C(=O)C(Cl)=C(Cl)C1=O)CN1C(=O)C(Cl)=C(Cl)C1=O |  | 8.66 µM |  | 30.1 |  | 15.9 |  | 27.9 µM |  | 14.7 |  | 33.5 µM |  | 48.8 µM |  | 39.4 |  | 53.4 |  | > 77.3
3 | O=S1(=O)N2CN3CN(C2)CN1C3 |  | > 31.6 µM and 73.8 µM |  | 864 |  | 571 | 26.6 | 44.4 µM and 76.6 µM | 30.8 | 110 | 25.2 | > 79.1 µM and 67.5 µM |  | 53.4 µM and 67.2 µM |  | 571 |  | 188 |  | 272
4 | CCOC(=O)C(C)(NC(=O)c1ccc(NCc2ccc3nc(NC(=O)c4ccccc4)nc(NC(=O)c4ccccc4)c3c2)cc1)C(=O)OCC |  | > 100 µM |  | > 100 |  | 21.9 |  | 24 µM |  | 17.8 |  | 34.1 µM |  | > 100 µM |  | 69.7 |  | 28.4 |  | 32.5
5 | O=C1CC2OCC=C3CN4CCC56c7ccccc7N1C5C2C3CC46O (stereo not drawn) |  | > 100 µM |  | > 100 |  | > 100 |  | > 100 µM |  | > 100 |  | > 100 µM |  | > 100 µM |  | > 100 |  | > 100 |  | > 100
6 | CC(=O)Nc1ccc(C(=O)CCl)cc1 | 1.97 | 3.93 µM | 2.92 | 7.06 | 1.78 | 3.24 | 2.2 | 4.95 µM | 7.56 | 24.2 | 1.93 | 4.17 µM | 2.39 | 7.6 µM | 7.48 | 20.7 | 16.9 | 42.6 | 10.8 | 26
7 | COc1cc(/C=C/C(=O)c2cccc(-n3cc(-c4cc(OC)c(OC)c(OC)c4)[nH]c3=O)c2)cc(OC)c1OC | 1.52 | 3.13 µM | 1.75 | 8.08 | 2.89 | 9.91 | 0.749 | 2.13 µM | 2.32 | 8.9 | 1.23 | 3.48 µM | 1.89 | 7.51 µM | 1.92 | 3.43 | 14.4 | 80.3 | 1.73 | 3.98
8 | O=C(Nc1ccc(Oc2ccc(F)cc2)cc1)[C@@H]1C[C@@H](Cc2ccc(F)cc2)CN1C(=O)Cn1ccnn1 | 5.21 | 16.8 µM | 4.2 | 31.6 | 11.5 | 51.7 | 4.79 | 17.3 µM | 7.16 | 31.9 | 7.28 | 22.2 µM | 5.04 | 23.1 µM | 7.17 | 21.8 | 7.79 | 29 | 5.37 | 21.4
9 | Oc1ccc(Br)cc1C=Nc1cccc(C(F)(F)F)c1 |  | > 100 µM |  | 83.8 |  | > 100 |  | > 100 µM |  | > 100 |  | > 100 µM |  | > 100 µM |  | 60.1 |  | 90.6 |  | > 100
10 | O=C1Nc2ccc(Cl)cc2/C1=C\c1c(-c2ccc(Cl)cc2)nc2sc(C3CC3)nn12 | 5.77 | 23.9 µM | 44.9 | > 100 | 1.43 | 11.1 | 3 | 11.4 µM | 3.12 | 11.5 | 3.15 | 10.7 µM | 4.36 | 17.6 µM | 6.94 | 22.3 | 1.7 | 4.68 | 3.89 | 14.1
11 | CCOC(=O)[C@@H](C)C[C@H](Cc1ccccc1)NC(=O)c1csc([C@@H](C[C@H](C(C)C)N(C)C(=O)[C@@H](NC(=O)[C@H]2CCCCN2C)C(C)(C)CC)OC(C)=O)n1 | < 0.00167 | 0.003 µM | 0.00338 | > 13.1 | 0.00176 | > 9.4 | < 0.00167 | 3.02 µM | 0.00231 | > 16.7 | < 0.00167 | 6.08 µM | < 0.00167 | > 5.93 µM | < 0.00167 | 2.77 | < 0.00167 | 0.0336 | < 0.00167 | > 12.9
12 | NS(=O)(=O)c1ccc(Nc2cc(-c3ccc(O)c(F)c3)[nH]n2)cc1 | > 25 | > 25 µM | > 25 | > 25 | > 25 | > 25 | > 25 | > 25 µM | 17.8 | > 25 | > 25 | > 25 µM | > 25 | > 25 µM | > 25 | > 25 | > 25 | > 25 | > 25 | > 25
13 | O=C(O/N=C1\CCCC\C1=C/c1ccccc1)c1ccc([N+](=O)[O-])cc1 |  | > 100 µM |  | > 100 |  | > 100 |  | > 100 µM |  | > 100 |  | > 100 µM |  | > 100 µM |  | > 100 |  | > 100 |  | > 100
14 | O=C1NC(=NCc2ccccc2Cl)S/C1=C\c1ccc2ncccc2c1 | 8.04 | > 25 µM | > 25 | > 25 | 4.83 | > 19.5 | 3.98 | > 25 µM | > 25 | > 25 | 8.86 | > 25 µM | 4.33 | > 25 µM | > 25 | > 25 | > 18.3 | > 25 | 10.6 | > 25
